Assay results from ChEMBL document CHEMBL5247607, “Design, synthesis and biological evaluation of a new series of arylidene indanones as small molecules for targeted therapy of non-small cell lung carcinoma and prostate cancer” (Eur J Med Chem, 2022).
Calls of active or inactive are those of the source. No cut-off for these calls is given here.

Legend:
[1] = Cytotoxicity against human CCD 19Lu cells assessed as inhibition of cell growth incubated for 24 hrs by MTT assay; assay type: toxicity, cell-based
PANC-1 [2] = test: Induction of mitochondrial membrane potential loss in human PANC-1 cells assessed as depolarized cells at IC50 incubated for 24 hrs by JC-1 staining based flow cytometry assay (reference value: 5%); assay type: functional
A549 [3] = test: Induction of apoptosis in human A549 cells assessed as increase in intracellular calcium level at 5.96 uM by Fluo-4-AM staining based flow cytometry analysis; assay type: functional, cell-based
PANC-1 [4] = test: Cytotoxicity against human PANC-1 cells assessed as inhibition of cell growth incubated for 24 hrs by MTT assay; assay type: functional, cell-based; details: PANC-1, 24 h
PANC-1 [5] = test: Induction of morphological changes in human PANC-1 cells assessed as formation of apoptotic bodies at 5.96 uM incubated for 24 hrs by acridine orange/ethidium bromide staining based fluorescence microscopic analysis; assay type: functional, cell-based
PANC-1 [6] = test: Induction of apoptosis in human PANC-1 cells assessed as total cell viability at IC50 incubated for 24 hrs by annexin V-FITC/PI staining based flow cytometry analysis (reference value: 84.4%); assay type: functional
PANC-1 [7] = test: Induction of morphological changes in human PANC-1 cells assessed as chromatin condensation at 5.96 uM incubated for 24 hrs by acridine orange/ethidium bromide staining based fluorescence microscopic analysis; assay type: functional, cell-based
[8] = Selectivity index, ratio of IC50 for cytotoxicity against human CCD 19Lu cells to IC50 for cytotoxicity against human A549 cells; assay type: toxicity, cell-based; details: CCD 19Lu cells versus A549 cells, read-out: Ratio IC50
PANC-1 [9] = test: Inhibition of DNA synthesis in human PANC-1 cells at 5.96 uM incubated for 24 hrs by BrdU incorporation assay relative to control; assay type: functional
PANC-1 [10] = test: Induction of morphological changes in human PANC-1 cells assessed as cell shrinkage at 5.96 uM incubated for 24 hrs by acridine orange/ethidium bromide staining based fluorescence microscopic analysis; assay type: functional
A549 [11] = test: Inhibition of DNA synthesis in human A549 cells at 1.49 uM incubated for 24 hrs by BrdU incorporation assay relative to control; assay type: functional
A549 [12] = test: Induction of morphological changes in human A549 cells assessed as formation of apoptotic bodies at 5.96 uM incubated for 24 hrs by acridine orange/ethidium bromide staining based fluorescence microscopic analysis; assay type: functional, cell-based
A549 [13] = test: Cytotoxicity against human A549 cells assessed as inhibition of cell growth incubated for 24 hrs by MTT assay; assay type: functional, cell-based; details: A549, 24 h
PANC-1 [14] = test: Induction of apoptosis in human PANC-1 cells assessed as activation of caspase-3 by measuring caspase-3 positive cells at IC50 incubated for 24 hrs by flow cytometry analysis (reference value: 1.8%); assay type: functional
A549 [15] = test: Induction of morphological changes in human A549 cells assessed as chromatin condensation at 5.96 uM incubated for 24 hrs by acridine orange/ethidium bromide staining based fluorescence microscopic analysis; assay type: functional, cell-based
PANC-1 [16] = test: Induction of apoptosis in human PANC-1 cells assessed as late apoptotic cells at IC50 incubated for 24 hrs by annexin V-FITC/PI staining based flow cytometry analysis (reference value: 0.2%); assay type: functional
PANC-1 [17] = test: Induction of apoptosis in human PANC-1 cells assessed as early apoptotic cells at IC50 incubated for 24 hrs by annexin V-FITC/PI staining based flow cytometry analysis (reference value: 0%); assay type: functional
A549 [18] = test: Induction of apoptosis in human A549 cells assessed as early apoptotic cells at IC50 incubated for 24 hrs by annexin V-FITC/PI staining based flow cytometry analysis (reference value: 5.6%); assay type: functional
[19] = Cytotoxicity against human hTERT-HPNE cells assessed as inhibition of cell growth incubated for 24 hrs by MTT assay; assay type: toxicity, cell-based
A549 [20] = test: Induction of mitochondrial membrane potential loss in human A549 cells assessed as depolarized cells at IC50 incubated for 24 hrs by JC-1 staining based flow cytometry assay (reference value: 6.9%); assay type: functional
A549 [21] = test: Induction of mitochondrial membrane potential loss in human A549 cells assessed as polarized cells at IC50 incubated for 24 hrs by JC-1 staining based flow cytometry assay (reference value: 90.6%); assay type: functional
[22] = biological target: Cathepsin D (Homo sapiens) (UniProt P07339); test: Inhibition of cathepsin D (unknown origin) at 100 uM relative to control
Cathepsin D (Homo sapiens), sequence (P07339 65-162 limits assumed): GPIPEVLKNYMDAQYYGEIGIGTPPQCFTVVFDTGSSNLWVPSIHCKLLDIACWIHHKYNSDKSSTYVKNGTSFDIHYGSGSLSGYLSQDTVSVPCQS
Cathepsin D (Homo sapiens), sequence (P07339 169-412 limits assumed): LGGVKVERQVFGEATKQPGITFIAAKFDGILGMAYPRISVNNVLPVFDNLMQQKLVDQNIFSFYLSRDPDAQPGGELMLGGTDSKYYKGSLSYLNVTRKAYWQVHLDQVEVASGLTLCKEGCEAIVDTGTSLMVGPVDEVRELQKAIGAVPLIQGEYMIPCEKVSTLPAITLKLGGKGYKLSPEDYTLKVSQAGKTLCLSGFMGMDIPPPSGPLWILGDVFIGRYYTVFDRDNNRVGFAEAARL

A549 [23] = test: Inhibition of DNA synthesis in human A549 cells at 2.98 uM incubated for 24 hrs by BrdU incorporation assay relative to control; assay type: functional
PANC-1 [24] = test: Induction of mitochondrial membrane potential loss in human PANC-1 cells assessed as polarized cells at IC50 incubated for 24 hrs by JC-1 staining based flow cytometry assay (reference value: 92%); assay type: functional
A549 [25] = test: Induction of morphological changes in human A549 cells assessed as cell shrinkage at 5.96 uM incubated for 24 hrs by acridine orange/ethidium bromide staining based fluorescence microscopic analysis; assay type: functional
[26] = biological target: Procathepsin L (Homo sapiens) (UniProt P07711); test: Inhibition of cathepsin L (unknown origin) at 100 uM
Procathepsin L (Homo sapiens), sequence (P07711 114-333 limits assumed): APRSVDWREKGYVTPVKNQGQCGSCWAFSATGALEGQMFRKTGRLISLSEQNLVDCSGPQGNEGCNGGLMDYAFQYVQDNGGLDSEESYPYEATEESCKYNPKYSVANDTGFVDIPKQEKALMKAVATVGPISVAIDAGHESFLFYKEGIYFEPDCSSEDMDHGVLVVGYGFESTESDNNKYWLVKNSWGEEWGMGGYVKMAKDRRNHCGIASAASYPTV

A549 [27] = test: Induction of apoptosis in human A549 cells assessed as late apoptotic cells at IC50 incubated for 24 hrs by annexin V-FITC/PI staining based flow cytometry analysis (reference value: 6.5 %); assay type: functional
A549 [28] = test: Induction of apoptosis in human A549 cells assessed as total cell viability at IC50 incubated for 24 hrs by annexin V-FITC/PI staining based flow cytometry analysis (reference value: 85.6 %); assay type: functional
[29] = Selectivity index, ratio of IC50 for cytotoxicity against human hTERT-HPNE cells to IC50 for cytotoxicity against human PANC-1 cells; assay type: toxicity, cell-based; details: hTERT-HPNE cells versus PANC-1 cells, read-out: Ratio IC50
A549 [30] = test: Inhibition of DNA synthesis in human A549 cells at 5.96 uM incubated for 24 hrs by BrdU incorporation assay relative to control; assay type: functional
A549 [31] = test: Induction of apoptosis in human A549 cells assessed as activation of caspase-3 by measuring caspase-3 negative cells at IC50 incubated for 24 hrs by flow cytometry analysis (reference value: 91.1%); assay type: functional
A549 [32] = test: Induction of apoptosis in human A549 cells assessed as activation of caspase-3 by measuring caspase-3 positive cells at IC50 incubated for 24 hrs by flow cytometry analysis (reference value: 8.4%); assay type: functional
PANC-1 [33] = test: Induction of apoptosis in human PANC-1 cells assessed as activation of caspase-3 by measuring caspase-3 negative cells at IC50 incubated for 24 hrs by flow cytometry analysis (reference value: 98.5 %); assay type: functional
[34] = biological target: Cathepsin D (Homo sapiens) (UniProt P07339); test: Inhibition of cathepsin D (unknown origin) at 100 uM
[35] = biological target: Procathepsin L (Homo sapiens) (UniProt P07711); test: Inhibition of cathepsin L (unknown origin) at 100 uM relative to control
PANC-1 [36] = test: Induction of morphological changes in human PANC-1 cells assessed as chromatin condensation at 13.58 uM incubated for 24 hrs by acridine orange/ethidium bromide staining based fluorescence microscopic analysis; assay type: functional, cell-based
PANC-1 [37] = test: Induction of morphological changes in human PANC-1 cells assessed as formation of apoptotic bodies at 13.58 uM incubated for 24 hrs by acridine orange/ethidium bromide staining based fluorescence microscopic analysis; assay type: functional, cell-based
PANC-1 [38] = test: Potency index, ratio of cisplatin IC50 for test compound IC50 for cytotoxicity against human PANC-1 cells assessed as inhibition of cell growth incubated for 24 hrs by MTT assay; assay type: functional
PANC-1 [39] = test: Induction of morphological changes in human PANC-1 cells assessed as cell shrinkage at 13.58 uM incubated for 24 hrs by acridine orange/ethidium bromide staining based fluorescence microscopic analysis; assay type: functional
PANC-1 [40] = test: Inhibition of DNA synthesis in human PANC-1 cells at IC50/4 to IC50 concentration incubated for 24 hrs by BrdU incorporation assay; assay type: functional, cell-based

CCN(CC)c1ccc(/C=C2\Cc3cc4c(cc3C2=O)OCO4)cc1
IC50 at 24 h [1]: > 1490 µM | Activity (PANC-1 [2]): 68.4% | Activity (A549 [3]): Active | IC50 (PANC-1 [4]): < 11.6 µM | Activity (PANC-1 [5]): Active | Activity (PANC-1 [6]): 90.9% | Activity (PANC-1 [7]): Active | selectivity ratio [8]: > 128 | inhibition at 5.96 µM (PANC-1 [9]): 23.6% | Activity (PANC-1 [10]): Active | inhibition at 1.49 µM (A549 [11]): 22.1% | Activity (A549 [12]): Active | IC50 (A549 [13]): < 11.6 µM | Activity (PANC-1 [14]): 3.1% | Activity (A549 [15]): Active | Activity (PANC-1 [16]): 1.5% | Activity (PANC-1 [17]): 3.5% | Activity (A549 [18]): 26.7% | IC50 at 24 h [19]: > 1490 µM | Activity (A549 [20]): 66.8% | Activity (A549 [21]): 65.1% | inhibition [22]: 30.4% | inhibition at 2.98 µM (A549 [23]): 24.2% | Activity (PANC-1 [24]): 29.7% | Activity (A549 [25]): Active | inhibition [26]: inactive | Activity (A549 [27]): 27% | Activity (A549 [28]): 38.8% | selectivity ratio [29]: > 128 | inhibition at 5.96 µM (A549 [30]): 39.6% | Activity (A549 [31]): 96.1% | Activity (A549 [32]): 3.9% | Activity (PANC-1 [33]): 97.6%

O=C1/C(=C/c2ccc(-n3ccnc3)cc2)Cc2cc3c(cc21)OCO3
IC50 at 24 h [1]: > 1510 µM | inhibition [34]: inactive | IC50 (PANC-1 [4]): 71.1 µM | selectivity ratio [8]: > 11.4 | IC50 (A549 [13]): 132 µM | inhibition [35]: 24.8% | IC50 at 24 h [19]: 153 µM | selectivity ratio [29]: 2.16

O=C1/C(=C/c2ccc(N3CCCCC3)cc2)Cc2cc3c(cc21)OCO3
IC50 at 24 h [1]: < 11.2 µM | IC50 (PANC-1 [4]): 360 µM | IC50 (A549 [13]): 16.3 µM | IC50 at 24 h [19]: 1180 µM | inhibition [22]: 39.1% | inhibition [26]: inactive | selectivity ratio [29]: 3.28

O=C1/C(=C/c2ccc(N3CCOCC3)cc2)Cc2cc3c(cc21)OCO3
IC50 at 24 h [1]: > 1430 µM | IC50 (PANC-1 [4]): 219 µM | selectivity ratio [8]: > 25.6 | IC50 (A549 [13]): 55.8 µM | IC50 at 24 h [19]: 1210 µM | inhibition [22]: 34.9% | inhibition [26]: inactive | selectivity ratio [29]: 5.52

CC(=O)Nc1ccc(/C=C2\Cc3cc4c(cc3C2=O)OCO4)cc1
IC50 at 24 h [1]: > 1560 µM | inhibition [34]: inactive | IC50 (PANC-1 [4]): 160 µM | selectivity ratio [8]: > 13.5 | IC50 (A549 [13]): 115 µM | IC50 at 24 h [19]: 57 µM | inhibition [26]: inactive

O=C1/C(=C/c2ccc(-n3cncn3)cc2)Cc2cc3c(cc21)OCO3
IC50 at 24 h [1]: > 1510 µM | inhibition [34]: inactive | Activity (PANC-1 [2]): 58.6% | IC50 (PANC-1 [4]): 13.6 µM | Activity (PANC-1 [36]): Active | Activity (PANC-1 [37]): Active | Ratio IC50 (PANC-1 [38]): 3 | Activity (PANC-1 [6]): 94% | Activity (PANC-1 [39]): Active | selectivity ratio [8]: > 23.3 | IC50 (A549 [13]): 64.9 µM | Activity (PANC-1 [14]): 9.1% | Activity (PANC-1 [16]): 0.4% | Activity (PANC-1 [17]): 0.1% | IC50 at 24 h [19]: > 1510 µM | Activity (PANC-1 [24]): 29.5% | inhibition [26]: inactive | selectivity ratio [29]: > 111 | inhibition (PANC-1 [40]): inactive | Activity (PANC-1 [33]): 93.5%

CN1CCN(c2ccc(/C=C3\Cc4cc5c(cc4C3=O)OCO5)cc2)CC1
IC50 at 24 h [1]: > 1380 µM | IC50 (PANC-1 [4]): 156 µM | selectivity ratio [8]: > 23.8 | IC50 (A549 [13]): 57.9 µM | IC50 at 24 h [19]: > 1380 µM | inhibition [22]: 26% | inhibition [26]: inactive | selectivity ratio [29]: > 8.82
